This passage reports IC50 and Ki results from ChEMBL document CHEMBL1130148, “Synthesis and study of thiocarbonate derivatives of choline as potential inhibitors of acetylcholinesterase” (J Med Chem, 1997).

A word on the IC50: it is the concentration that inhibits the measured activity by half. Lower therefore signals greater potency. One may read the Ki as a dissociation constant, usually derived from enzyme kinetics or from competition with a known ligand. Read a low Ki as tighter binding.

For the first assay, the target named is T1, Acetylcholinesterase (Bos taurus, UniProt P23795).
T1 sequence (P23795 whole entry): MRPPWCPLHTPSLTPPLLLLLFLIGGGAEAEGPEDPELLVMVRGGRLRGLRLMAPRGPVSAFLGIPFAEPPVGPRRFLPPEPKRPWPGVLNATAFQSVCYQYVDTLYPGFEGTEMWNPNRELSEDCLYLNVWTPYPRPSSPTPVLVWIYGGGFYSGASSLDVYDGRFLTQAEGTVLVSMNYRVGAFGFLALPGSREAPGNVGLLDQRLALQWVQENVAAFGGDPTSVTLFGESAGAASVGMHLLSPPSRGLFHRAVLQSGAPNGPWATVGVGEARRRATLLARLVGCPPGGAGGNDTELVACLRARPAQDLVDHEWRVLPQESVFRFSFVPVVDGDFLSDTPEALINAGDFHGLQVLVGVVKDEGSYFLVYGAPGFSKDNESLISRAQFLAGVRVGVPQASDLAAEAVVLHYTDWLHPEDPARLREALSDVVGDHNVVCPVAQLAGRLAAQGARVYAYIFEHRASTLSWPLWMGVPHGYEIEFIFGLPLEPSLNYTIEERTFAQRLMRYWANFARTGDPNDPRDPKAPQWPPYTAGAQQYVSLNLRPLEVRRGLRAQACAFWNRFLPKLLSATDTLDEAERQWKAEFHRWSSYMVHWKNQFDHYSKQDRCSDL
In words: Inhibition of Acetylcholinesterase activity of calf forebrain.
Turning to `CCCCCSC(=O)OCC[N+](C)(C)C`, the IC50 amounted to 1 µM.
Same read-out and setting: under `CCCCSC(=O)OCC[N+](C)(C)C` stands 100 µM; under `CCC(C)CSC(=O)OCC[N+](C)(C)C.[Cl-]` (stereo not given), 800 µM.
In turn, `C[N+](C)(C)CCOC(=O)Sc1ccccc1.[Cl-]` yielded an IC50 of 100 µM.
The same measure, in the same setting: under `CCSC(=O)OCC[N+](C)(C)C` stands greater than 10000 µM.
The same measure, in the same setting: under `CCCCCCCSC(=O)OCC[N+](C)(C)C` stands 10 µM; under `CCCSC(=O)OCC[N+](C)(C)C`, greater than 1000 µM.
`CCc1ccc(SC(=O)OCC[N+](C)(C)C)cc1` returned an IC50 of 100 µM.
Same read-out and setting: for `CCc1ccccc1SC(=O)OCC[N+](C)(C)C.[Cl-]` the value was 10 µM.
As to `CCN(CC)CCNC(=O)c1ccc(N)cc1` [PROCAINAMIDE], the IC50 was determined as 0.5 µM.
In turn, `CCC(C)(C)SC(=O)OCC[N+](C)(C)C.[Cl-]` came in with an IC50 of 10 µM.
The compound `CCCCCCSC(=O)OCC[N+](C)(C)C` registered an IC50 of 20 µM.
Turning to `CC(C)CCSC(=O)OCC[N+](C)(C)C`, the IC50 amounted to 10 µM.

For a further assay, the target named is T1, Acetylcholinesterase. The assay can be described thus: In vitro inhibition of Acetylcholinesterase activity from calf fore brain was evaluated using 1 mM of ATC as substrate; NI=Not inhibitory.
For `CC(C)(C)SC(=O)OCC[N+](C)(C)C.[Cl-]`, the IC50 result is on record as “No inhibition”.
Still for that read-out and setting: for `CC(C)SC(=O)OCC[N+](C)(C)C.[Cl-]` the value was “No inhibition”.

The next assay concerns the target T1, Acetylcholinesterase. The assay can be described thus: Binding affinity against Acetylcholinesterase of purified calf forebrain (CFB).
As for `CCCCCSC(=O)OCC[N+](C)(C)C`, the affinity, expressed as Ki, was 1 µM.
In the case of `CCCCCCCSC(=O)OCC[N+](C)(C)C`, the affinity, expressed as Ki, was 10 µM.
For `CCN(CC)CCNC(=O)c1ccc(N)cc1` [PROCAINAMIDE], the affinity, expressed as Ki, was 1 µM.

The target of another assay is T2, Acetylcholinesterase (Homo sapiens, UniProt P22303). In words: Binding affinity against Acetylcholinesterase of human RBC.
T2 sequence (P22303 whole entry): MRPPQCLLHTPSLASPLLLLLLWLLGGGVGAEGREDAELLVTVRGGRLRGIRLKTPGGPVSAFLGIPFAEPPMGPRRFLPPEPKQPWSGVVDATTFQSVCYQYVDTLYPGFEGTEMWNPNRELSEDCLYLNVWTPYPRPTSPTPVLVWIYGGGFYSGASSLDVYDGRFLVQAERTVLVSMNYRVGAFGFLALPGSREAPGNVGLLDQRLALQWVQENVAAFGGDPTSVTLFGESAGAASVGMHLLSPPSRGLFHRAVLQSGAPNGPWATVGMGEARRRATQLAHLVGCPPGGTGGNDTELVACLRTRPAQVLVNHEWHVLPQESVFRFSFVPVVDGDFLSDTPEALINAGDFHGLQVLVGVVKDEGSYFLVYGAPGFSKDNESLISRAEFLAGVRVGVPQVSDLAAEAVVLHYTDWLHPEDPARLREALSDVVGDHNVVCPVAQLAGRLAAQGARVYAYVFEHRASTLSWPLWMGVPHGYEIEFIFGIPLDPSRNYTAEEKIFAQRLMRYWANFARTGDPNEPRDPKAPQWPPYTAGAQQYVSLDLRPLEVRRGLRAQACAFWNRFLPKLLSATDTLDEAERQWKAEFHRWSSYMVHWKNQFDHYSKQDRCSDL
Turning to `CCCCCCCSC(=O)OCC[N+](C)(C)C`, affinity was put at a Ki of 20 µM.
On the same count and under the same terms, for `CCN(CC)CCNC(=O)c1ccc(N)cc1` [PROCAINAMIDE] the value was 1 µM.

A further assay addresses T2, Acetylcholinesterase. The assay can be described thus: Inhibition of Acetylcholinesterase from human red blood cells.
The compound `CCCCCSC(=O)OCC[N+](C)(C)C` registered an IC50 of 0.8 µM.
For the compound `CCCCSC(=O)OCC[N+](C)(C)C`, the IC50 worked out at 500 µM.
`CCC(C)CSC(=O)OCC[N+](C)(C)C.[Cl-]` (stereo not given) registered an IC50 of 1000 µM.
Still for that read-out and setting: under `C[N+](C)(C)CCOC(=O)Sc1ccccc1.[Cl-]` stands 1000 µM.
The same measure, in the same setting: under `CCSC(=O)OCC[N+](C)(C)C` stands greater than 10000 µM; under `CCCCCCCSC(=O)OCC[N+](C)(C)C`, 50 µM.
As to `CCCSC(=O)OCC[N+](C)(C)C`, the IC50 was greater than 5000 µM.
On the same count and under the same terms, for `CCc1ccc(SC(=O)OCC[N+](C)(C)C)cc1` the value was 500 µM; for `CCc1ccccc1SC(=O)OCC[N+](C)(C)C.[Cl-]`, 50 µM.
Regarding `CCN(CC)CCNC(=O)c1ccc(N)cc1` [PROCAINAMIDE], the midpoint of inhibition, the IC50, lay at 1 µM.
For `CCC(C)(C)SC(=O)OCC[N+](C)(C)C.[Cl-]`, the IC50 came out at 40 µM.
Compound `CCCCCCSC(=O)OCC[N+](C)(C)C` gave an IC50 of 80 µM.
The same measure, in the same setting: under `CC(C)CCSC(=O)OCC[N+](C)(C)C` stands 50 µM.

In the next assay the target is T2, Acetylcholinesterase. The assay can be described thus: In vitro inhibition of Acetylcholinesterase activity from human red blood cells was evaluated using 1 mM of ATC as substrate; NI=Not inhibitory.
Consider `CC(C)(C)SC(=O)OCC[N+](C)(C)C.[Cl-]`, for which the IC50 entry is reported as “No inhibition”.
In the case of `CC(C)SC(=O)OCC[N+](C)(C)C.[Cl-]`, the half-maximal inhibitory concentration (IC50) entry was “No inhibition”.
